≈ marks a conversion by molar mass, not a printed value.

For data set [1], the system named is solid and hematologic tumor cells. The conditions noted are these: cited from earlier work.
Data set [2] relates to proteasome. The following applies: blood and tissue; cited from earlier work.
Data set [3] concerns models of multiple myeloma, hematologic, and solid tumors. The following applies: cited from earlier work.
Data set [4] in a line: Effect of pH on saturation solubility of carfilzomib. In kind it is physicochemical. The conditions noted are these: aqueous buffer, thermodynamic from solid. An excerpt:
For instance, a buffer is typically used in the liquid pharmaceutical compositions of the invention to control the pH.

As for `CC(C)C[C@H](NC(=O)[C@H](CCc1ccccc1)NC(=O)CN1CCOCC1)C(=O)N[C@@H](Cc1ccccc1)C(=O)N[C@@H](CC(C)C)C(=O)[C@@]1(C)CO1` [Carfilzomib, (2S)—N—((S)-1-((S)-4-methyl-1-((R)-2-methyloxiran-2-yl)-1-oxopentan-2-ylcarbamoyl)-2-phenylethyl)-2-((S)-2-(2-morpholinoacetamido)-4-phenylbutanamido)-4-methylpentanamide], the “Activities in vitro in tumor cells” value in data set [1] was “antiproliferative and proapoptotic activities”. Moreover, the “Effect on proteasome activity” value in data set [2] was “inhibit proteasome activity”. For the same compound, in data set [3], the “Effect on tumor growth” value is given as “delay tumor growth”. For the same compound, the solubility in data set [4] (1% L-cysteine solution, pH 1.7 (1% L-Cysteine)) amounted to 459 µg/mL (≈ 638 µM); in data set [4] (pH 3.5 (15 mM Acetate Buffer)) it was 125 µg/mL (≈ 174 µM); in data set [4] (pH 5.0 (15 mM Citrate Buffer)), 9 µg/mL (≈ 12.5 µM); in data set [4] (pH 7.0 (15 mM Phosphate Buffer)), 5 µg/mL (≈ 6.95 µM).

Values taken from patent US9636376B2, “Stable compositions of peptide epoxy ketones” (priority 2012, dated 2017).
